According to US6156493A, “Modified-affinity streptavidin” (priority 1997, dated 2000):
Like-named read-outs stand apart in the source and are kept apart here.

How the values were obtained:
[1] = target: T1, Streptomyces avidinii core streptavidin variant W120F (Streptomyces avidinii, UniProt P22629, W144F); settings: tight-binding limit; 0.2 nM total biotin
T1 construct: core streptavidin, defined as residues 13-139 of the naturally occurring protein; made in house
Procedure: (§1) The free ligand was then separated from the protein-bound ligand by either Microcon-30 or Centriprep-30 centrigual ultrafiltration devices (Amicon, Inc.). Typically, 0.1-1 ml of the free ligand solution or the protein-ligand mixture was added to 18 ml liquid scintillation cocktail (Ecolume, ICN Biomedicals, Inc., Costa Mesa, Calif.) and assayed on a liquid scintillation counter (Beckman Instruments, Inc., Fullerton, Calif.). The Ka was determined from a nonlinear curve fit of the fraction of protein-bound ligand versus the free protein concentration.
(§2) This assay provides a useful estimate of the Ka when the affinities lie between 10^6 -10^9.

[2] = target: T2, Streptomyces avidinii core streptavidin, wild type (WT) (Streptomyces avidinii, UniProt P22629); test: Equilibrium binding of 3H-biotin (ultrafiltration spin-column assay); settings: tight-binding limit; 0.2 nM total biotin; isotherm identical to W120F
T2 construct: core streptavidin, defined as residues 13-139 of the naturally occurring protein; made in house
T2 sequence (P22629 37-163): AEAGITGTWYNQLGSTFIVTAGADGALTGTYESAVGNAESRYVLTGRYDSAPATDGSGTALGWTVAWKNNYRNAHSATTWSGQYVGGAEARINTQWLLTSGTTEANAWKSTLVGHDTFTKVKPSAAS
Procedure: as §1, §2

[3] = target: T3, Streptomyces avidinii core streptavidin variant W108F (Streptomyces avidinii, UniProt P22629, W132F); test: Equilibrium biotin-binding enthalpy and heat capacity (isothermal titrating calorimetry)
T3 construct: core streptavidin, defined as residues 13-139 of the naturally occurring protein; made in house
T3 sequence (P22629 37-163 W132F): as the sequence (P22629 37-163) above, with W96F counted along it
Procedure: (§3) The equilbrium binding enthalpies, ΔH°, and the heat capacities, ΔCp°, have also been […] with the streptavidin mutants (Table II). Heat capacities were determined as generally described in Murphy et al., Proteins: Structure, Function and Genetics 15:113-120 (1993), incorporated herein by reference.
(§4) The determination of ΔGr .noteq. by transition state analysis and the independent estimation of ΔG^0 from affinity measurements allows the drawing of free energy profiles for WT streptavidin and the Trp to Phe mutants. Similarly, the enthalpic energy profiles can be drawn from the equilibrium biotin-binding enthalpy (ΔH^0), independently determined by isothermal titrating calorimetry measurements, and ΔHr .noteq. available from transition state analysis of the temperature-dependent protein-ligand dissociation kinetics. The virtue of this analysis is that is allows the free energy barriers responsible for the off-rates of the different mutants to be delineated in terms of alterations in the transition state and/or the biotin-bound ground state, and further partitions these free energy changes into enthalpic and entropic components. Upon comparison with the results for WT streptavidin, the thermodynamic effects of mutating specific residues can then be mapped, providing considerable insight into the structure and energetics of the transition state.

[4] = target: T4, Streptomyces avidinii core streptavidin variant W120A (Streptomyces avidinii, UniProt P22629, W144A); test: as above
T4 construct: core streptavidin, defined as residues 13-139 of the naturally occurring protein; made in house
T4 sequence (P22629 37-163 W144A): as the sequence (P22629 37-163) above, with W108A counted along it
Procedure: as §3, §4

[5] = target: T1, Streptomyces avidinii core streptavidin variant W120F; test: as above
Procedure: as §3, §4

[6] = target: T2, Streptomyces avidinii core streptavidin, wild type (WT); test: as above
Procedure: as §3, §4

[7] = target: T5, Streptomyces avidinii core streptavidin variant W79A (Streptomyces avidinii, UniProt P22629, W103A); test: as above
T5 construct: core streptavidin, defined as residues 13-139 of the naturally occurring protein; made in house
T5 sequence (P22629 37-163 W103A): as the sequence (P22629 37-163) above, with W67A counted along it
Procedure: as §3, §4

[8] = target: T6, Streptomyces avidinii core streptavidin variant W79F (Streptomyces avidinii, UniProt P22629, W103F); test: as above
T6 construct: core streptavidin, defined as residues 13-139 of the naturally occurring protein; made in house
T6 sequence (P22629 37-163 W103F): as the sequence (P22629 37-163) above, with W67F counted along it
Procedure: as §3, §4

[9] = target: T3, Streptomyces avidinii core streptavidin variant W108F; test: Streptavidin-biotin dissociation rate (3H biotin, cold biotin chase, ultrafiltration) and transition state analysis; type: binding
Procedure: (§5) Fifty μl of the filtrate were mixed with 10 ml scintillation cocktail in triplicate and assayed for radioactivity in a liquid scintillation counter (LS-7000, Beckman Instruments, Fullerton, Calif.). […] Standard deviations were determined based on three independent measurements.

[10] = target: T1, Streptomyces avidinii core streptavidin variant W120F; test: as above; type: binding
Procedure: as §5

[11] = target: T2, Streptomyces avidinii core streptavidin, wild type (WT); test: as above; type: binding
Procedure: as §5

[12] = target: T6, Streptomyces avidinii core streptavidin variant W79F; test: as above; type: binding
Procedure: as §5

[13] = target: T3, Streptomyces avidinii core streptavidin variant W108F; test: ELISA concentration-dependent binding to iminobiotin/BSA; settings: for EC50: Absolute EC50, ligand iminobiotin/BSA
Procedure: (§6) ELISA Assays. […] 2-Iminobiotin conjugated to bovine serum albumin (iminobiotin/BSA) was synthesized by reacting a twenty-fold molar excess of 2-iminobiotin N-hydroxysuccinimide ester (sigma) with 100 mg BSA in 100 mM NaHCO3, pH 8.3 for 12 hr at 4° C. with end-over-end stirring, followed by dialysis and gel filtration (G-25, Pharmacia) to separate iminobiotin/BSA from unreacted 2-iminobiotin. […] The next day the microwell plates were incubated with 200 μl per well of blocking buffer at pH 8.0 or pH 10.0 (50 mM sodium phosphate, pH 8.0 or 50 mM Na2 CO3, pH 10.0/100 mM NaCl/0.5% (w/v) BSA/0.05% (v/v) Tween-20) for at least 2 hr at room temperature and then incubated in ten-fold serial dilutions of 100 μg/ml WT streptavidin or mutants (100 μl/well) for 2 hr at room temperature, rinsed with blocking buffer at pH 8.0 or pH 10.0 (200 μl/well), and incubated for 1 hr at room temperature in 2×10^4 dilution of primary antistreptavidin antibodies (Sigma) in pH 8.0 or pH 10.0 blocking buffer (100 μl/well). The plates were rinsed three times with 200 μl per well blocking buffer at the assay pH, incubated with secondary anti-IgG/alkaline phosphatase conjugate (Sigma) for 1 hr at room temperature, rinsed three times with blocking buffer, and assayed for alkaline phosphatase activity at pH 10.0. Every plate assayed had triplicates for each protein concentration. The data were processed on Mathcad (Mathworks) to determine the equivalent bulk concentration at 50% saturation of binding (EC50) values using a published 4-parameter nonlinear fitting algorithm shown below (Jin et al., J. Mol. Biol. 226: 851-865 (1992)):
(§7) y=a+(d-a)/[1+exp (b(c-x))]
(§8) where a, b, c, and d are the adjustable fitting parameters; x=streptavidin concentration (μg/ml); y=absorbance at 405 nm. Absolute EC50 in μg ml^-1 are given by the value of the parameter c for the best fit of the fitting function to the binding isotherm. Relative EC50 values reported in Table I are EC50 (mutant)/EC50 (WT streptavidin).

[14] = target: T1, Streptomyces avidinii core streptavidin variant W120F; test: as above; settings: Absolute EC50, ligand iminobiotin/BSA
Procedure: as §6, §7, §8

[15] = target: Streptomyces avidinii core streptavidin Trp→Ala mutants (WxA: W79A, W108A, W120A); test: as above; settings: ligand iminobiotin/BSA; pH 8/10; lower bound
Procedure: as §6, §7, §8

[16] = target: T6, Streptomyces avidinii core streptavidin variant W79F; test: as above; settings: for EC50: Absolute EC50, ligand iminobiotin/BSA
Procedure: as §6, §7, §8

[17] = target: T7, Streptomyces avidinii core streptavidin (residues 13-139), wild type (WT) (Streptomyces avidinii, UniProt P22629); test: ELISA concentration-dependent binding to biotin/BSA or iminobiotin/BSA; settings: ligand iminobiotin/BSA, EC50 is protein concentration, read-out: Absolute EC50 (converted)
T7 construct: core streptavidin, defined as residues 13-139 of the naturally occurring protein; made in house
T7 sequence (P22629 37-163): as the sequence (P22629 37-163) above
Procedure: ELISA Assays. […] 2-Iminobiotin conjugated to bovine serum albumin (iminobiotin/BSA) was synthesized by reacting a twenty-fold molar excess of 2-iminobiotin N-hydroxysuccinimide ester (sigma) with 100 mg BSA in 100 mM NaHCO3, pH 8.3 for 12 hr at 4° C. with end-over-end stirring, followed by dialysis and gel filtration (G-25, Pharmacia) to separate iminobiotin/BSA from unreacted 2-iminobiotin. […] The next day the microwell plates were incubated with 200 μl per well of blocking buffer at pH 8.0 or pH 10.0 (50 mM sodium phosphate, pH 8.0 or 50 mM Na2 CO3, pH 10.0/100 mM NaCl/0.5% (w/v) BSA/0.05% (v/v) Tween-20) for at least 2 hr at room temperature and then incubated in ten-fold serial dilutions of 100 μg/ml WT streptavidin or mutants (100 μl/well) for 2 hr at room temperature, rinsed with blocking buffer at pH 8.0 or pH 10.0 (200 μl/well), and incubated for 1 hr at room temperature in 2×10^4 dilution of primary antistreptavidin antibodies (Sigma) in pH 8.0 or pH 10.0 blocking buffer (100 μl/well). […]
where a, b, c, and d are the adjustable fitting parameters; x=streptavidin concentration (μg/ml); y=absorbance at 405 nm. […]

[18] = target: T4, Streptomyces avidinii core streptavidin variant W120A; test: Affinity of W120A for 2-iminobiotin; type: binding
[19] = target: Streptomyces avidinii streptavidin, wild type (WT); test: Known Ka of ligand-WT streptavidin partners used for the analysis; type: binding; settings: pH 10.0; estimated from experimentally-determined value for iminobiotin/avidin
Description: Streptavidin, a protein produced by Streptomyces avidinii, forms a very strong and specific non-covalent complex with the water soluble vitamin biotin. […] See, Green, Adv. Prot. Chem. 29: 85-143 (1975).
Order of magnitude determinations of ΔKa for the mutants were estimated from the EC50, given the known Ka 's of some of these ligand-protein partners. […] These numbers are further supported by the independently determined biotin-binding affinities of the W79A and W120A mutants, which agree well with the ELISA estimates.

[20] = equilibrium biotin binding enthalpy
[21] = heat capacity of biotin binding
[22] = biotin-bound ground state relative to WT
[23] = activation barrier of biotin dissociation
[24] = activation enthalpy of biotin dissociation, transition state analysis

T1 sequence (P22629 37-163 W144F): as the sequence (P22629 37-163) above, with W108F counted along it

SMILES: O=C(O)CCCC[C@@H]1SC[C@@H]2NC(=O)N[C@@H]21 [biotin]
- Ka (biotin) [1]: > 10^9
- Ka (biotin) [2]: > 10^9
- ΔH° [3, 20]: -23.5 kcal/mol
- ΔCp° [3, 21]: -386 cal/molK
- ΔH° [4, 20]: -12.8 kcal/mol
- ΔCp° [4, 21]: -272 cal/molK
- TΔΔS° (entropy term) ([5]; biotin binding, relative to WT): +2.4 kcal mol^-1
- ΔΔH° ([5]; biotin binding, relative to WT): +5.1 kcal mol^-1
- ΔΔG° [5, 22]: +2.7 kcal mol^-1
- ΔH° [5, 20]: -19.4 kcal/mol
- ΔCp° [5, 21]: -303 cal/molK
- ΔH° [6, 20]: -24.5 kcal/mol
- ΔCp° [6, 21]: -345 cal/molK
- ΔH° [7, 20]: -18.5 kcal/mol
- ΔCp° [7, 21]: -357 cal/molK
- TΔΔS° ([8]; biotin binding, relative to WT): -2.4 kcal/mol
- ΔΔH° ([8]; biotin binding, relative to WT): -1.5 kcal/mol
- ΔΔG° [8, 22]: +0.9 kcal mol^-1
- ΔH° [8, 20]: -25.9 kcal/mol
- ΔCp° [8, 21]: -266 cal/molK
- TΔSr≠ ([9]; T = 298K, biotin dissociation): 13.8 ± 0.9 kal mol^-1
- ΔGr≠ [9, 23]: 22.7 ± 1.3 kal mol^-1
- ΔHr≠ [9, 24]: 36.5 ± 0.9 kcal/mol
- ΔΔGr≠ = ΔGr≠(mutant) - ΔGr≠(WT) ([9]; biotin dissociation): -1.7 kal mol^-1
- TΔSr≠ ([10]; T = 298K, biotin dissociation): 6.6 ± 1.0 kal mol^-1
- ΔGr≠ [10, 23]: 21.9 ± 1.4 kal mol^-1
- ΔΔGr≠ = ΔGr≠(mutant) - ΔGr≠(WT) ([10]; biotin dissociation): -2.5 kal mol^-1
- ΔGr≠ (activation barrier for biotin dissociation) [11]: 24.4 kcal/mol
- TΔSr≠ ([11]; T = 298K, biotin dissociation): 7.6 ± 2.1 kal mol^-1
- ΔGr≠ [11, 23]: 24.4 ± 2.4 kal mol^-1
- t1/2 of biotin complex ([11]; biotin dissociation): 35 h
- ΔΔGr≠ = ΔGr≠(mutant) - ΔGr≠(WT) ([11]; biotin dissociation): 0 kal mol^-1
- TΔSr≠ ([12]; T = 298K, biotin dissociation): 11.6 ± 0.6 kal mol^-1
- ΔGr≠ [12, 23]: 23.3 ± 0.8 kal mol^-1
- ΔHr≠ [12, 24]: 34.9 ± 0.6 kcal/mol
- ΔΔGr≠ = ΔGr≠(mutant) - ΔGr≠(WT) ([12]; biotin dissociation): -1.1 kal mol^-1

SMILES: N=C1N[C@H]2[C@H](CS[C@H]2CCCCC(=O)O)N1 [2-iminobiotin]
- Kd [13]: 9260 to 9350 µM
- EC50 ([13]; pH 8): 39.5 µM
- EC50 ([13]; pH 10): 0.493 µM
- EC50 ([14]; pH 8): 42.2 µM
- EC50 ([14]; pH 10): 16.6 µM
- Absolute EC50 [15]: ≥ 100 µg/mL
- Kd [16]: 9260 to 9350 µM
- EC50 ([16]; pH 8): 34 µM
- EC50 ([16]; pH 10): 0.575 µM
- EC50 ([17]; pH 8): 0.189 µM
- EC50 ([17]; pH 10): 0.214 µM
- affinity for 2-iminobiotin [18]: < 10^3 M^-1
- Ka for iminobiotin/WT streptavidin [19]: 10^8 M^-1
